These results are taken from patent US20230092890A1, “1, 3, 4-Oxadiazole derivative compounds as histone deacetylase 6 inhibitor, and the pharmaceutical composition comprising the same” (Chong Kun Dang Pharmaceutical Corp., priority 2019, published 2023).

In one assay the target is T1, HDAC1 (Homo sapiens, UniProt Q13547).
T1 construct: purchased Enzolifesciences BML-AK511
The experiment in a line: HDAC enzyme activity inhibition (in vitro), HDAC1 Fluorimetric Drug Discovery Assay Kit. It counts as biochemical. As to conditions: samples at 100, 1000 and 10000 nM; 37° C. 60 minutes; fluorescence Ex 390, Em 460; read-out: HDAC1 IC50. Put shortly:
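Each sample reacted with enzyme for 60 min at 37° C before a 30-min developer step at the same temperature. HDAC1 doses spanned 100 to 10000 nM. Fluorescent signal was read at Ex 390/Em 460.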

A further assay addresses T2, HDAC6 human recombinant (Homo sapiens, UniProt Q9UBN7).
T2 construct: purchased Calbiochem 382180
T2 sequence (Q9UBN7 1-1215): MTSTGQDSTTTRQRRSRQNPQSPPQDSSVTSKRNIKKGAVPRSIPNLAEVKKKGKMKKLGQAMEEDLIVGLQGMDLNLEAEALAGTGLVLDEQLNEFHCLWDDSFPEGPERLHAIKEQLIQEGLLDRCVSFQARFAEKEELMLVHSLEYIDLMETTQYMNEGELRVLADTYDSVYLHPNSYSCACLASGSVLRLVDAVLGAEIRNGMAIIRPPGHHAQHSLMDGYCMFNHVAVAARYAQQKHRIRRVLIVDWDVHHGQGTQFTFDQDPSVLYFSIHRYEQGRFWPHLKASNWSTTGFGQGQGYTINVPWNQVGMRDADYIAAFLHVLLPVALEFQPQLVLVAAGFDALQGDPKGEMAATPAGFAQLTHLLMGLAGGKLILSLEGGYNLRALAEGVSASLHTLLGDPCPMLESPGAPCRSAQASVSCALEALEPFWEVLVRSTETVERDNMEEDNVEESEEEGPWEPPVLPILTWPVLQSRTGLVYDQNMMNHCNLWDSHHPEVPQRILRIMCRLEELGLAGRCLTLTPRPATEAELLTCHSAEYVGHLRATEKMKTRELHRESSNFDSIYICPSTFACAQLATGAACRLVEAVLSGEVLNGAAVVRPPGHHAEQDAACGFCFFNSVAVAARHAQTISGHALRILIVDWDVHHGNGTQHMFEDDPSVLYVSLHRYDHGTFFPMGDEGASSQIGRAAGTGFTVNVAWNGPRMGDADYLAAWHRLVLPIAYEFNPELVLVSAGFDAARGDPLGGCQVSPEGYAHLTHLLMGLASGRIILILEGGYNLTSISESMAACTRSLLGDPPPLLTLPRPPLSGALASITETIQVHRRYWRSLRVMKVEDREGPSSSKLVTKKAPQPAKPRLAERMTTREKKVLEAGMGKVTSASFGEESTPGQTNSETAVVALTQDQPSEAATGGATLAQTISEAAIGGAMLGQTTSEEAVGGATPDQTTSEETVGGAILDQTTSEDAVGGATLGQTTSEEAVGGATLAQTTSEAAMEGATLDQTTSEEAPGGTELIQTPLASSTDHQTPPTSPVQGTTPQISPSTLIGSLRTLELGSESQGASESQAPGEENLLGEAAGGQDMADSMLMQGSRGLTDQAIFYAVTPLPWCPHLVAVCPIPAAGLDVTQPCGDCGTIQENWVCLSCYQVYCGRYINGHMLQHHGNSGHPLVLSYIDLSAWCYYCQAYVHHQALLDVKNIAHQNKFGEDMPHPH
Put plainly: HDAC enzyme activity inhibition (in vitro), HDAC6 assay. It is filed as biochemical. The following applies: samples at 0.1, 1, 10, 100 and 1000 nM; 37° C. 60 minutes; fluorescence Ex 390, Em 460; read-out: HDAC6 IC50. Put shortly: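 Fluorescence (Ex 390, Em 460) read after a 37° C, 60 min enzyme reaction and a further 30 min developer step at 37° C. Uses recombinant human HDAC6; HDAC1 arm dosed at 100, 1000, 10000 nM.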

T1 sequence (Q13547 whole entry): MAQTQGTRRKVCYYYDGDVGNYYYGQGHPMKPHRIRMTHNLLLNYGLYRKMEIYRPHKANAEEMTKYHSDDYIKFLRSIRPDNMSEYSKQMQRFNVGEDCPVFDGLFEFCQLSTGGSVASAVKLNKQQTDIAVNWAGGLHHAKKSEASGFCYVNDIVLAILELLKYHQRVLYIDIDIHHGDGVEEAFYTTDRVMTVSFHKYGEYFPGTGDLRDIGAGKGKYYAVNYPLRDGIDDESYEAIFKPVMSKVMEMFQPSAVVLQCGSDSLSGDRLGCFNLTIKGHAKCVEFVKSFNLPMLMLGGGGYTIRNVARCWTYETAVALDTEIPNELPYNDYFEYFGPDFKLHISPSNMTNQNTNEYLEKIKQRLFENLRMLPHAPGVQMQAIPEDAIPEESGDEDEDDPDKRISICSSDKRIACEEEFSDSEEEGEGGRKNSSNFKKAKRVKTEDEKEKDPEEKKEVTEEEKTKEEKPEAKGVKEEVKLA

For the molecule `CN1CCC(n2c(=O)n(Cc3ccc(-c4nnc(C(F)F)o4)cc3F)c3cc(F)c(-c4ccccc4F)cc32)CC1` [Compound 116, 1-(4-(5-(difluoromethyl)-1,3,4-oxadiazole-2-yl)-2-fluorobenzyl)-6-fluoro-5-(2-fluorophenyl)-3-(1-methylpiperidine-4-yl)-1,3-dihydro-2H-benzo[d]imidazole-2-one], the IC50 is greater than 10000 nM at HDAC1 and 84 nM at HDAC6 human recombinant.

For the molecule `CN1CCC(n2c(=O)n(Cc3ccc(-c4nnc(C(F)F)o4)cc3F)c3cc(F)c(-c4cccnc4)cc32)CC1` [Compound 117, 1-(4-(5-(difluoromethyl)-1,3,4-oxadiazole-2-yl)-2-fluorobenzyl)-6-fluoro-3-(1-methylpiperidine-4-yl)-5-(pyridine-3-yl)-1,3-dihydro-2H-benzo[d]imidazole-2-one], the IC50 is greater than 10000 nM at HDAC1 and 24 nM at HDAC6 human recombinant.

On to `CN1CCC(n2c(=O)n(Cc3ccc(-c4nnc(C(F)F)o4)cc3F)c3cc(F)c(-c4ccncc4)cc32)CC1` [Compound 118, 1-(4-(5-(difluoromethyl)-1,3,4-oxadiazole-2-yl)-2-fluorobenzyl)-6-fluoro-3-(1-methylpiperidine-4-yl)-5-(pyridine-4-yl)-1,3-dihydro-2H-benzo[d]imidazole-2-one], for which the results for the IC50 on HDAC1 and on HDAC6 human recombinant were greater than 10000 nM and 42 nM, respectively.

Take `CN1CCC(n2c(=O)n(Cc3ccc(-c4nnc(C(F)F)o4)cc3F)c3cc(Br)ccc32)CC1` [Compound 119, 5-bromo-3-(4-(5-(difluoromethyl)-1,3,4-oxadiazole-2-yl)-2-fluorobenzyl)-1-(1-methylpiperidine-4-yl)-1,3-dihydro-2H-benzo[d]imidazole-2-one]: the IC50 is greater than 10000 nM at HDAC1 and 80 nM at HDAC6 human recombinant.

For `CN1CCC(n2c(=O)n(Cc3ccc(-c4nnc(C(F)F)o4)cc3F)c3cc(-c4cccc(F)c4)ccc32)CC1` [Compound 120, 3-(4-(5-(difluoromethyl)-1,3,4-oxadiazole-2-yl)-2-fluorobenzyl)-5-(3-fluorophenyl)-1-(1-methylpiperidine-4-yl)-1,3-dihydro-2H-benzo[d]imidazole-2-one], the results for the IC50 at HDAC1 and at HDAC6 human recombinant were greater than 10000 nM and 1310 nM, respectively.

As to `CN1CCC(n2c(=O)n(Cc3ccc(-c4nnc(C(F)F)o4)cc3F)c3cc(-c4cc(F)ccc4F)ccc32)CC1` [Compound 121, 3-(4-(5-(difluoromethyl)-1,3,4-oxadiazole-2-yl)-2-fluorobenzyl)-5-(2,5-difluorophenyl)-1-(1-methylpiperidine-4-yl)-1,3-dihydro-2H-benzo[d]imidazole-2-one], the IC50 was greater than 10000 nM on HDAC1 and 3150 nM at HDAC6 human recombinant.

Consider `CN1CCC(n2c(=O)n(Cc3ccc(-c4nnc(C(F)F)o4)cc3F)c3cc(-c4ccc(C(F)(F)F)cc4)ccc32)CC1` [Compound 122, 3-(4-(5-(difluoromethyl)-1,3,4-oxadiazole-2-yl)-2-fluorobenzyl)-1-(1-methylpiperidine-4-yl)-5-(4-(trifluoromethyl)phenyl)-1,3-dihydro-2H-benzo[d]imidazole-2-one], for which the IC50 at HDAC1 was greater than 10000 nM; on HDAC6 human recombinant it was greater than 5000 nM.

As to `Cc1ccc(-c2ccc3c(c2)n(Cc2ccc(-c4nnc(C(F)F)o4)cc2F)c(=O)n3C2CCN(C)CC2)o1` [Compound 124, 3-(4-(5-(difluoromethyl)-1,3,4-oxadiazole-2-yl)-2-fluorobenzyl)-5-(5-methylfuran-2-yl)-1-(1-methylpiperidine-4-yl)-1,3-dihydro-2H-benzo[d]imidazole-2-one], the IC50 was greater than 10000 nM on HDAC1 and 950 nM at HDAC6 human recombinant.

Turning to `CN1CCC(n2c(=O)n(Cc3ccc(-c4nnc(C(F)F)o4)cc3F)c3cc(-c4cccnc4)ccc32)CC1` [Compound 125, 3-(4-(5-(difluoromethyl)-1,3,4-oxadiazole-2-yl)-2-fluorobenzyl)-1-(1-methylpiperidine-4-yl)-5-(pyridine-3-yl)-1,3-dihydro-2H-benzo[d]imidazole-2-one], the IC50 at HDAC1 was greater than 10000 nM; on HDAC6 human recombinant, 602 nM.

For `CN1CCC(n2c(=O)n(Cc3ccc(-c4nnc(C(F)F)o4)cc3)c3cc(Br)ccc32)CC1` [Compound 126, 5-bromo-3-(4-(5-(difluoromethyl)-1,3,4-oxadiazole-2-yl)benzyl)-1-(1-methylpiperidine-4-yl)-1,3-dihydro-2H-benzo[d]imidazole-2-one], the IC50 on HDAC1 was greater than 10000 nM; at HDAC6 human recombinant, 29 nM.

Consider `CN1CCC(n2c(=O)n(Cc3ccc(-c4nnc(C(F)F)o4)cc3)c3cc(-c4cc(F)ccc4F)ccc32)CC1` [Compound 128], for which the IC50 at HDAC1 is greater than 10000 nM; on HDAC6 human recombinant it was 798 nM.

Consider `CN1CCC(n2c(=O)n(Cc3ccc(-c4nnc(C(F)F)o4)cc3)c3cc(-c4ccc(C(F)(F)F)cc4)ccc32)CC1` [Compound 129], for which the values for the IC50 on HDAC1 and at HDAC6 human recombinant were greater than 10000 nM and greater than 3000 nM, respectively.

Consider `Cc1ccc(-c2ccc3c(c2)n(Cc2ccc(-c4nnc(C(F)F)o4)cc2)c(=O)n3C2CCN(C)CC2)o1` [Compound 130], for which the IC50 is greater than 10000 nM on HDAC1 and 288 nM on HDAC6 human recombinant.

`Cc1noc(C)c1-c1ccc2c(c1)n(Cc1ccc(-c3nnc(C(F)F)o3)cc1)c(=O)n2C1CCN(C)CC1` [Compound 131, 3-(4-(5-(difluoromethyl)-1,3,4-oxadiazole-2-yl)benzyl)-5-(3,5-dimethylisooxazole-4-yl)-1-(1-methylpiperidine-4-yl)-1,3-dihydro-2H-benzo[d]imidazole-2-one]: the IC50 on HDAC1 is greater than 10000 nM; on HDAC6 human recombinant, 606 nM.

With `CN1CCC(n2c(=O)n(Cc3ccc(-c4nnc(C(F)F)o4)cc3)c3cc(-c4cccnc4)ccc32)CC1` [Compound 132, 3-(4-(5-(difluoromethyl)-1,3,4-oxadiazole-2-yl)benzyl)-1-(1-methylpiperidine-4-yl)-5-(pyridine-3-yl)-1,3-dihydro-2H-benzo[d]imidazole-2-one], the figures for the IC50 at HDAC1 and on HDAC6 human recombinant were greater than 10000 nM and 281 nM, respectively.

Regarding `CN1CCC(n2c(=O)n(Cc3ccc(-c4nnc(C(F)F)o4)cn3)c3ccc(-c4cccc(F)c4)cc32)CC1` [Compound 133, 1-((5-(5-(difluoromethyl)-1,3,4-oxadiazole-2-yl)pyridine-2-yl)methyl)-5-(3-fluorophenyl)-3-(1-methylpiperidine-4-yl)-1,3-dihydro-2H-benzo[d]imidazole-2-one], the IC50 was greater than 10000 nM on HDAC1 and 20 nM at HDAC6 human recombinant.

With `CN1CCC(n2c(=O)n(Cc3ccc(-c4nnc(C(F)F)o4)cn3)c3ccc(-c4ccccc4F)cc32)CC1` [Compound 134, 1-((5-(5-(difluoromethyl)-1,3,4-oxadiazole-2-yl)pyridine-2-yl)methyl)-5-(2-fluorophenyl)-3-(1-methylpiperidine-4-yl)-1,3-dihydro-2H-benzo[d]imidazole-2-one], the IC50 on HDAC1 was greater than 10000 nM; at HDAC6 human recombinant, 20 nM.

Take `CN1CCC(n2c(=O)n(Cc3ccc(-c4nnc(C(F)F)o4)cn3)c3ccc(-c4ccncc4)cc32)CC1` [Compound 135, 1-((5-(5-(difluoromethyl)-1,3,4-oxadiazole-2-yl)pyridine-2-yl)methyl)-3-(1-methylpiperidine-4-yl)-5-(pyridine-4-yl)-1,3-dihydro-2H-benzo[d]imidazole-2-one]: the concentration for half-maximal inhibition (IC50) on HDAC1 is greater than 10000 nM; on HDAC6 human recombinant, 19 nM.

Regarding `CN1CCC(n2c(=O)n(Cc3ccc(-c4nnc(C(F)F)o4)cn3)c3ccc(-c4cccnc4)cc32)CC1` [Compound 136, 1-((5-(5-(difluoromethyl)-1,3,4-oxadiazole-2-yl)pyridine-2-yl)methyl)-3-(1-methylpiperidine-4-yl)-5-(pyridine-3-yl)-1,3-dihydro-2H-benzo[d]imidazole-2-one], the IC50 at HDAC1 was greater than 10000 nM; at HDAC6 human recombinant it was 12 nM.
